What was measured:
MDCK cells [1] = experiment: Inhibition of T4 phage transcytosis across MDCK monolayers by chemical inhibitors; assay type: cell-based, canine; settings: for Inhibitor transcytosis Median ± s.d.: T4 phages across MDCK pretreated 18 hrs: Brefeldin A 5 μgmL^−1, Wortmannin 100 nM, Bafilomycin 0.5 μM, Chloroquine 100 μM, W-7 100 μM, solvent 7.9 ± 3 × 10^4; for effect of inhibitor on phage transcytosis: T4 phages across inhibitor-treated MDCK cells vs solvent control
Experimental: All cells were seeded at a density of 0.5-1×10^6 cells per well and allowed to grow to confluency (3-5 days). For apical-to-basal transcytosis the apical wells were incubated in Hanks Buffered Salt Solution (HBSS) at pH 6.0 and basal cells in HBSS at pH 7.4 for two hours to mimic pH-dependent uptake (2). For basal-to-apical transcytosis the buffers were switched. Bacteriophages were applied with the HBBS pH 6.0 buffer, incubated with cells for two hours and phage from both apical and basal cell layers quantified by plating with bacterial host.
Permeation of phages throughout the eukaryotic cell. The mechanism of phage access to Eukaryotic cells remains ambiguous (22, 24, 29). […] Inhibition of phage transcytosis was reported as the percentage of phages transcytosed across inhibitor-treated cells, compared to cells treated with a solvent control (FIG. 3A and Table S3).
Before this invention, the mechanism of phage transcytosis across eukaryotic cells remained ambiguous, see e.g., Duerkop et al., 2013, Resident viruses and their interactions with the immune system, Nat Immunol 14:654-9; Merril, et al., 1996, Long-circulating bacteriophage as antibacterial agents, Proc Natl Acad Sci 93:3188-3192; Aronow, et al., 1964, Electron microscopy of in vitro endocytosis of T2 phage by cells from rabbit perioneal exudate, J Exp Med 120. […] Inhibition of phage transcytosis was reported as the percentage of phages transcytosed across inhibitor-treated cells compared to cells treated with a solvent control (FIG. 13).

MDCK cells [2] = experiment: Fluorescence-positive MDCK cells after treatment with labeled T4 phages; assay type: cell-based, canine; settings: n=1008, mean
Excerpt: T4 phage were fluorescently labeled and visualized within MDCK cells (FIG. 4A-C).

| SMILES | Inhibitor transcytosis Median ± s.d. (MDCK cells [1]) | effect of inhibitor on phage transcytosis (MDCK cells [1]) | phages transcytosed compared to a solvent control (MDCK cells [1]; T4 phages across inhibitor-treated MDCK cells) | proportion of fluorescence-positive cells treated with BFA and labeled T4 phages (MDCK cells [2]) |
| --- | --- | --- | --- | --- |
| CO/C1=C\C(C)=C\[C@@H](C)[C@@H](O)[C@@H](C)C/C(C)=C/C=C/[C@H](OC)[C@@H]([C@@H](C)[C@@H](O)[C@H](C)[C@@]2(O)C[C@@H](O)[C@H](C)[C@@H](C(C)C)O2)OC1=O [Bafilomycin] | 1 ± .19 × 10^5 | no significant treatment effects | – | – |
| COC[C@H]1OC(=O)c2coc3c2[C@@]1(C)C1=C(C3=O)[C@@H]2CCC(=O)[C@@]2(C)C[C@H]1OC(C)=O [Wortmannin] | 8.1 ± 2.9 × 10^4 | – | – | – |
| CCN(CC)CCCC(C)Nc1ccnc2cc(Cl)ccc12 (centres unmarked) [Chloroquine] | 5.3 ± 2.7 × 10^4 | no significant treatment effects | – | – |
| NCCCCCCNS(=O)(=O)c1cccc2c(Cl)cccc12 [W-7] | 8.2 ± 1.1 × 10^4 | no significant treatment effects | – | – |
| C[C@H]1CCC/C=C/[C@@H]2C[C@H](O)C[C@H]2[C@H](O)/C=C/C(=O)O1 [Brefeldin A] | 2.3 ± 2.2 × 10^4 | significant but incomplete inhibition of transcytosis | 38.5% | 9.98% |
